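Exposure lasted 48 hours, with cells grown in 96-well plates and compounds tested at five concentrations. The concentration for 50% growth inhibition is given as GI50.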 Activity calls are given as the source filed them. No stated cut-off is given here; in the data, active = GI50 up to about 1.1 µM and inactive = higher.
What was measured:
Assay in all cases: NCI anticancer screen, dose series, 48 h
[1] = tested on: Malme-3M
[2] = tested on: SK-MEL-5
[3] = tested on: NCI-H460
[4] = tested on: MDA-N
[5] = tested on: OVCAR-3
[6] = tested on: UACC-257
[7] = tested on: CCRF-CEM
[8] = tested on: DU-145
[9] = tested on: LOX IMVI
[10] = tested on: A549
[11] = tested on: MDA-MB-435
[12] = tested on: UACC-62
[13] = tested on: MDA-MB-231
[14] = tested on: SK-OV-3
[15] = tested on: PC-3
[16] = tested on: OVCAR-8
[17] = tested on: ACHN
[18] = tested on: HOP-92
[19] = tested on: SR
[20] = tested on: SNB-75

SMILES | GI50 [1] | GI50 [2] | GI50 [3] | GI50 [4] | GI50 [5] | GI50 [6] | GI50 [7] | GI50 [8] | GI50 [9] | GI50 [10] | GI50 [11] | GI50 [12] | GI50 [13] | GI50 [14] | GI50 [15] | GI50 [16] | GI50 [17] | GI50 [18] | GI50 [19] | GI50 [20]
CC(C)(C)OC(=O)NCCCCC1NC(=O)[C@@H]2Cc3c([nH]c4ccccc34)C(c3ccccc3)N2C1=O (some centres not stated) | 31.1 µM (inactive) | 27.6 µM (inactive) | 30.4 µM (inactive) | 29.4 µM (inactive) | 19 µM (inactive) | 35.6 µM (inactive) | 26.7 µM (inactive) | 49.2 µM (inactive) | 19.9 µM (inactive) | 38.4 µM (inactive) | 34.2 µM (inactive) | 23.4 µM (inactive) | 27.4 µM (inactive) | 50.4 µM (inactive) | 33.8 µM (inactive) | 36.2 µM (inactive) | 43.8 µM (inactive) | 22.8 µM (inactive) | 13.6 µM (inactive) | 
CCOC(=O)CSc1[nH]c2nc(C)nc(Cl)c2c1C#N | > 10 µM (inactive) | > 10 µM (inactive) |  | > 10 µM (inactive) |  | > 10 µM (inactive) | > 10 µM (inactive) | > 10 µM (inactive) | > 10 µM (inactive) | > 10 µM (inactive) | > 10 µM (inactive) | > 10 µM (inactive) | > 10 µM (inactive) | > 10 µM (inactive) | > 10 µM (inactive) | > 10 µM (inactive) |  | > 10 µM (inactive) | > 10 µM (inactive) | > 10 µM (inactive)
COC1OC(=O)C(OC)C(OC)C1OC (configuration not stated) |  | > 100 µM (inactive) | > 100 µM (inactive) | > 100 µM (inactive) | > 100 µM (inactive) | > 100 µM (inactive) |  | > 100 µM (inactive) | > 100 µM (inactive) | > 100 µM (inactive) | > 100 µM (inactive) | > 100 µM (inactive) | > 100 µM (inactive) | > 100 µM (inactive) | > 100 µM (inactive) | 88.3 µM (inactive) | > 100 µM (inactive) | > 100 µM (inactive) | > 100 µM (inactive) | > 100 µM (inactive)
CN(C)CCNC(=O)c1cccc2c(NC(CCCNC(=N)N)C(=O)O)c3ccccc3nc12 (configuration not stated) | 3.86 µM (inactive) | 6.05 µM (inactive) |  | 14 µM (inactive) | 18.1 µM (inactive) |  | 15.3 µM (inactive) | 17 µM (inactive) | 3.85 µM (inactive) | 4.8 µM (inactive) | 10.1 µM (inactive) | 15.8 µM (inactive) | 9.27 µM (inactive) | 12.6 µM (inactive) | 9.1 µM (inactive) | 4.13 µM (inactive) | 2.79 µM (inactive) | 3.85 µM (inactive) | 1 µM (active) | 8.83 µM (inactive)
CCn1c(-c2ccc(/N=N/Nc3ccc(-c4n[nH]c(=S)n4CC)cc3)cc2)n[nH]c1=S | 2.57 µM (inactive) | 1.49 µM (inactive) |  | 3.19 µM (inactive) | 2.26 µM (inactive) | 3.15 µM (inactive) | 3.91 µM (inactive) | 2.87 µM (inactive) | 3.46 µM (inactive) | 3.56 µM (inactive) | 2.45 µM (inactive) |  | 4.2 µM (inactive) | 3.33 µM (inactive) | 2.75 µM (inactive) | 2.28 µM (inactive) | 2.36 µM (inactive) | 2.79 µM (inactive) | 3.47 µM (inactive) | 2.79 µM (inactive)
O=C1CC(c2ccc(Cl)cc2)C2(C(=O)NC(=S)NC2=O)C(c2ccc(Cl)cc2)C1 (configuration not stated) | 21.4 µM (inactive) | 17 µM (inactive) | 14.9 µM (inactive) | 17.2 µM (inactive) | 17.4 µM (inactive) | 18.5 µM (inactive) | 24.2 µM (inactive) | 37.2 µM (inactive) | 28.3 µM (inactive) | 26.9 µM (inactive) | 19.5 µM (inactive) | 16.1 µM (inactive) | 20.2 µM (inactive) | 14.9 µM (inactive) | 20.1 µM (inactive) |  | 36.2 µM (inactive) | 5.31 µM (inactive) | 30.3 µM (inactive) | 15.1 µM (inactive)
N=C(NCc1ccccc1)N/N=C\c1ccnc2ccccc12 | 10.2 µM (inactive) | 6.52 µM (inactive) | 13.9 µM (inactive) | 10.9 µM (inactive) | 11.6 µM (inactive) | 2.35 µM (inactive) | 1.87 µM (inactive) | 16.5 µM (inactive) | 11.5 µM (inactive) | 15 µM (inactive) | 9.23 µM (inactive) | 15.1 µM (inactive) | 13.9 µM (inactive) | 15.5 µM (inactive) | 15.6 µM (inactive) | 13.5 µM (inactive) | 15.3 µM (inactive) | 1.43 µM (inactive) | 2.09 µM (inactive) | 8.04 µM (inactive)
O=C1NC(N2CCCC(CO)C2)=N/C1=C\c1ccccc1 (configuration not stated) | > 100 µM (inactive) | > 100 µM (inactive) |  | > 100 µM (inactive) | > 100 µM (inactive) | > 100 µM (inactive) | > 100 µM (inactive) | > 100 µM (inactive) | > 100 µM (inactive) | > 100 µM (inactive) | > 100 µM (inactive) | > 100 µM (inactive) | > 100 µM (inactive) | > 100 µM (inactive) | > 100 µM (inactive) | > 100 µM (inactive) | > 100 µM (inactive) | > 100 µM (inactive) | > 100 µM (inactive) | > 100 µM (inactive)
CC(C)(C)OC(=O)N[C@@H](Cc1ccccc1)C(=O)N1CC[C@@H](C(=O)N2[C@H]3CC4CC[C@@]3(CS2(=O)=O)C4(C)C)N1 |  | 24.6 µM (inactive) | 39.4 µM (inactive) | 39.3 µM (inactive) | 51.6 µM (inactive) | > 100 µM (inactive) | 51.3 µM (inactive) | 79.6 µM (inactive) | 75.9 µM (inactive) | 43.8 µM (inactive) | 51.9 µM (inactive) | 52.4 µM (inactive) | 48 µM (inactive) | > 100 µM (inactive) | 45.7 µM (inactive) | 59.3 µM (inactive) | 64.9 µM (inactive) | > 100 µM (inactive) | > 100 µM (inactive) | 39.9 µM (inactive)
CCSC12OC3(CCCCCN3C1=O)C1C(=O)N(c3ccccc3)C(=O)C12 (configuration not stated) | > 100 µM (inactive) | > 100 µM (inactive) | > 100 µM (inactive) | > 100 µM (inactive) | > 100 µM (inactive) | > 100 µM (inactive) | > 100 µM (inactive) | > 100 µM (inactive) | > 100 µM (inactive) | > 100 µM (inactive) | > 100 µM (inactive) | > 100 µM (inactive) | > 100 µM (inactive) | > 100 µM (inactive) | > 100 µM (inactive) | > 100 µM (inactive) | > 100 µM (inactive) | > 100 µM (inactive) | > 100 µM (inactive) | > 100 µM (inactive)
Cc1cc(C)c(C#N)c(SC(=S)NC(=O)c2ccccc2)n1 | > 100 µM (inactive) | > 100 µM (inactive) | > 100 µM (inactive) | > 100 µM (inactive) |  | > 100 µM (inactive) | > 100 µM (inactive) | > 100 µM (inactive) |  | > 100 µM (inactive) | > 100 µM (inactive) | > 100 µM (inactive) | > 100 µM (inactive) |  | > 100 µM (inactive) |  | > 100 µM (inactive) | > 100 µM (inactive) | > 100 µM (inactive) | 1.53 µM (inactive)
Oc1nc(-c2cccc(F)c2)nc2ccccc12 | 45.8 µM (inactive) | > 67.1 µM (inactive) | 36.1 µM (inactive) | > 62.8 µM (inactive) | > 54.2 µM (inactive) | > 91.6 µM (inactive) | > 21.3 µM (inactive) | > 100 µM (inactive) | > 100 µM (inactive) | 51.6 µM (inactive) | > 86.1 µM (inactive) | 23.1 µM (inactive) | > 42.2 µM (inactive) | 28.7 µM (inactive) | 55.5 µM (inactive) | 29.8 µM (inactive) | 31.1 µM (inactive) | 30.7 µM (inactive) | > 77.3 µM (inactive) | 16.6 µM (inactive)
CCN(CC)C(=S)SNCc1ccc(S(N)(=O)=O)cc1 | 15.3 µM (inactive) | 13.5 µM (inactive) | 1.34 µM (inactive) | 15.6 µM (inactive) | 14.4 µM (inactive) | 17.1 µM (inactive) |  | 15.5 µM (inactive) | 13.5 µM (inactive) | 12.3 µM (inactive) | 19.5 µM (inactive) | 24.9 µM (inactive) | 18.1 µM (inactive) | 40.1 µM (inactive) | 13.1 µM (inactive) | 14.4 µM (inactive) | 15.3 µM (inactive) | 22.5 µM (inactive) | 1.28 µM (inactive) | 18.5 µM (inactive)
NC(=O)C[C@H](NC(=O)C1(NC(=O)[C@H](Cc2ccc(CP(=O)(O)O)cc2)NC(=O)C(=O)O)CCCCC1)C(=O)NCCCc1cccc2ccccc12 | > 10 µM (inactive) | > 10 µM (inactive) | > 10 µM (inactive) | > 10 µM (inactive) | > 10 µM (inactive) | > 10 µM (inactive) | 8.28 µM (inactive) | > 10 µM (inactive) | > 10 µM (inactive) | > 10 µM (inactive) | > 10 µM (inactive) | > 10 µM (inactive) | > 10 µM (inactive) | > 10 µM (inactive) | > 10 µM (inactive) | > 10 µM (inactive) | > 10 µM (inactive) | > 10 µM (inactive) | 1.82 µM (inactive) | > 10 µM (inactive)

Source: ChEMBL document CHEMBL1201862, “PubChem BioAssay data set” (2004)
